In patent US12077503B2, “Substituted cyclic amides and their use as herbicides” (FMC CORPORATION, priority 2015, dated 2024):
Like-named read-outs stand apart in the source and are kept apart here.

Legend:
Assay in all cases: Test A postemergence
Type in all cases: in vivo
[1] = system: blackgrass (Alopecurus myosuroides); settings: Alopecurus myosuroides, post-emergence, 240 h; for pest or weed control at 125 g/ha: 125 g ai/ha; for pest or weed control at 125 g/ha / pest or weed control at 500 g/ha: postemergence; for pest or weed control at 31 g/ha: Postemergence, 31 g ai/ha, visual injury after approx. 10 d, 0 no effect, 100 complete control, read-out: Plant response rating, Blackgrass; for pest or weed control at 31 g/ha / pest or weed control at 500 g/ha: 0 to 100 scale; for pest or weed control at 500 g/ha: 500 g ai/ha, 0 is no effect, 100 is complete control
In short: (§1)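 Visual injury, scored on a 0–100 scale relative to untreated controls, was recorded about 10 d after application. Treatments were a preemergence soil spray over planted seeds or a postemergence spray on plants at the one- to two-leaf stage, 2 to 10 cm tall, all in loam soil–sand blend in the greenhouse.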

Kochia (Kochia scoparia) = settings: Bassia scoparia, post-emergence, 240 h; for pest or weed control at 125 g/ha: 125 g ai/ha; for pest or weed control at 125 g/ha / pest or weed control at 500 g/ha: postemergence; for pest or weed control at 31 g/ha: Postemergence, 31 g ai/ha, visual injury after approx. 10 d, 0 no effect, 100 complete control, read-out: Plant response rating, Kochia; for pest or weed control at 31 g/ha / pest or weed control at 500 g/ha: 0 to 100 scale; for pest or weed control at 500 g/ha: 500 g ai/ha, 0 is no effect, 100 is complete control
In short: as §1

[2] = system: barnyardgrass (Echinochloa crus-galli); settings: Echinochloa crus-galli, post-emergence, 240 h; for pest or weed control at 125 g/ha: 125 g ai/ha; for pest or weed control at 125 g/ha / pest or weed control at 500 g/ha: postemergence; for pest or weed control at 31 g/ha: Postemergence, 31 g ai/ha, visual injury after approx. 10 d, 0 no effect, 100 complete control, read-out: Plant response rating, Barnyardgrass; for pest or weed control at 31 g/ha / pest or weed control at 500 g/ha: 0 to 100 scale; for pest or weed control at 500 g/ha: 500 g ai/ha, 0 is no effect, 100 is complete control
In short: as §1

[3] = system: Galium (catchweed bedstraw, Galium aparine); settings: Galium, post-emergence, 240 h; for pest or weed control at 125 g/ha: 125 g ai/ha; for pest or weed control at 125 g/ha / pest or weed control at 500 g/ha: postemergence; for pest or weed control at 31 g/ha: Postemergence, 31 g ai/ha, visual injury after approx. 10 d, 0 no effect, 100 complete control, read-out: Plant response rating, Galium; for pest or weed control at 31 g/ha / pest or weed control at 500 g/ha: 0 to 100 scale; for pest or weed control at 500 g/ha: 500 g ai/ha, 0 is no effect, 100 is complete control
In short: as §1

[4] = system: giant foxtail (Setaria faberii); settings: Setaria faberi, post-emergence, 240 h; for pest or weed control at 125 g/ha: 125 g ai/ha; for pest or weed control at 125 g/ha / pest or weed control at 500 g/ha: postemergence; for pest or weed control at 31 g/ha: Postemergence, 31 g ai/ha, visual injury after approx. 10 d, 0 no effect, 100 complete control, read-out: Plant response rating, Foxtail, Giant; for pest or weed control at 31 g/ha / pest or weed control at 500 g/ha: 0 to 100 scale; for pest or weed control at 500 g/ha: 500 g ai/ha, 0 is no effect, 100 is complete control
In short: as §1

[5] = system: ragweed (common ragweed, Ambrosia elatior); settings: Ambrosia artemisiifolia, post-emergence, 240 h; for pest or weed control at 125 g/ha: 125 g ai/ha; for pest or weed control at 125 g/ha / pest or weed control at 500 g/ha: postemergence; for pest or weed control at 31 g/ha: Postemergence, 31 g ai/ha, visual injury after approx. 10 d, 0 no effect, 100 complete control, read-out: Plant response rating, Ragweed; for pest or weed control at 31 g/ha / pest or weed control at 500 g/ha: 0 to 100 scale; for pest or weed control at 500 g/ha: 500 g ai/ha, 0 is no effect, 100 is complete control
In short: as §1

[6] = visual injury rating after approximately 10 d, read-out: Blackgrass plant response rating (0 to 100 scale, 0 no effect, 100 complete control)
[7] = visual injury rating after approximately 10 d, read-out: Kochia plant response rating (0 to 100 scale, 0 no effect, 100 complete control)
[8] = visual injury rating after approximately 10 d, read-out: Barnyardgrass plant response rating (0 to 100 scale, 0 no effect, 100 complete control)
[9] = visual injury rating after approximately 10 d, read-out: Galium plant response rating (0 to 100 scale, 0 no effect, 100 complete control)
[10] = visual injury rating after approximately 10 d, read-out: Foxtail, Giant plant response rating (0 to 100 scale, 0 no effect, 100 complete control)
[11] = visual injury rating after approximately 10 d, read-out: Ragweed plant response rating (0 to 100 scale, 0 no effect, 100 complete control)
[12] = read-out: Blackgrass plant response rating
[13] = read-out: Kochia plant response rating
[14] = read-out: Barnyardgrass plant response rating
[15] = read-out: Galium plant response rating
[16] = read-out: Foxtail, Giant plant response rating
[17] = read-out: Ragweed plant response rating
[18] = visual injury vs untreated controls after approx. 10 d, 0 = no effect, 100 = complete control, read-out: Blackgrass plant response rating (0 to 100 scale)
[19] = visual injury vs untreated controls after approx. 10 d, 0 = no effect, 100 = complete control, read-out: Kochia plant response rating (0 to 100 scale)
[20] = visual injury vs untreated controls after approx. 10 d, 0 = no effect, 100 = complete control, read-out: Barnyardgrass plant response rating (0 to 100 scale)
[21] = visual injury vs untreated controls after approx. 10 d, 0 = no effect, 100 = complete control, read-out: Galium plant response rating (0 to 100 scale)
[22] = visual injury vs untreated controls after approx. 10 d, 0 = no effect, 100 = complete control, read-out: Foxtail, Giant plant response rating (0 to 100 scale)
[23] = visual injury vs untreated controls after approx. 10 d, 0 = no effect, 100 = complete control, read-out: Ragweed plant response rating (0 to 100 scale)

Compound	pest or weed control at 125 g/ha [1, 6]	pest or weed control at 31 g/ha [1]	pest or weed control at 125 g/ha (Kochia (Kochia scoparia); [7])	pest or weed control at 31 g/ha (Kochia (Kochia scoparia))	pest or weed control at 125 g/ha [2, 8]	pest or weed control at 31 g/ha [2]	pest or weed control at 125 g/ha [3, 9]	pest or weed control at 31 g/ha [3]	pest or weed control at 125 g/ha [4, 10]	pest or weed control at 31 g/ha [4]	pest or weed control at 125 g/ha [5, 11]	pest or weed control at 31 g/ha [5]	pest or weed control at 500 g/ha [1, 12]	pest or weed control at 500 g/ha (Kochia (Kochia scoparia); [13])	pest or weed control at 500 g/ha [2, 14]	pest or weed control at 500 g/ha [3, 15]	pest or weed control at 500 g/ha [4, 16]	pest or weed control at 500 g/ha [5, 17]	pest or weed control at 125 g/ha [1, 18]	pest or weed control at 125 g/ha (Kochia (Kochia scoparia); [19])	other results
CSc1ccccc1NC(=O)[C@H]1C(=O)N(C)CC[C@@H]1c1cccc(OC(F)(F)F)c1 [Compound 809]	0%	0%	0%	0%	0%	0%	0%	0%	0%	0%	0%	0%	–	–	–	–	–	–	–	–	–
CN1CC[C@H](c2ccc3c(c2)OC(F)(F)O3)[C@@H](C(=O)Nc2ccccc2C(F)(F)F)C1=O [Compound 811]	0%	0%	0%	0%	40%	0%	0%	0%	60%	0%	0%	0%	–	–	–	–	–	–	–	–	–
CN1CC[C@H](c2ccc3c(c2)OC(F)(F)O3)[C@@H](C(=O)Nc2cccc(F)c2F)C1=O [Compound 812]	80%	40%	20%	0%	90%	90%	50%	20%	90%	70%	0%	0%	–	–	–	–	–	–	–	–	–
CN1CC[C@H](c2ccc3c(c2)OC(F)(F)O3)[C@@H](C(=O)Nc2ccc(F)c(F)c2F)C1=O [Compound 813]	80%	30%	0%	0%	80%	40%	30%	20%	80%	70%	0%	0%	–	–	–	–	–	–	–	–	–
CN1C[C@H](c2cccc(C3CC3)c2)[C@@H](C(=O)Nc2ccccc2F)C1=O [Compound 815]	50%	–	40%	–	100%	–	50%	–	90%	–	0%	–	–	–	–	–	–	–	–	–	–
CN1C[C@H](c2csc3ccccc23)[C@@H](C(=O)Nc2ccccc2F)C1=O [Compound 1114]	–	–	–	–	–	–	–	–	–	–	–	–	60%	20%	90%	20%	90%	0%	–	–	pest or weed control at 125 g/ha ([1]; visual injury on 0 to 100 scale (0 no effect, 100 complete control), approx. 10 d, read-out: Blackgrass plant response rating): 20%; pest or weed control at 125 g/ha (Kochia (Kochia scoparia); visual injury on 0 to 100 scale (0 no effect, 100 complete control), approx. 10 d, read-out: Kochia plant response rating): 0%; pest or weed control at 125 g/ha ([2]; visual injury on 0 to 100 scale (0 no effect, 100 complete control), approx. 10 d, read-out: Barnyardgrass plant response rating): 80%; pest or weed control at 125 g/ha ([3]; visual injury on 0 to 100 scale (0 no effect, 100 complete control), approx. 10 d, read-out: Galium plant response rating): 0%; pest or weed control at 125 g/ha ([4]; visual injury on 0 to 100 scale (0 no effect, 100 complete control), approx. 10 d, read-out: Foxtail, Giant plant response rating): 90%; pest or weed control at 125 g/ha ([5]; visual injury on 0 to 100 scale (0 no effect, 100 complete control), approx. 10 d, read-out: Ragweed plant response rating): 0%
CSc1ccccc1NC(=O)[C@H]1C(=O)N(C)CC[C@@H]1c1ccc(C(F)(F)F)cc1 [Compound 1227]	–	–	–	–	–	–	–	–	–	–	–	–	0%	30%	70%	0%	0%	0%	0%	0%	pest or weed control at 125 g/ha [2, 20]: 0%; pest or weed control at 125 g/ha [3, 21]: 0%; pest or weed control at 125 g/ha [4, 22]: 0%; pest or weed control at 125 g/ha [5, 23]: 0%
CSc1ccccc1NC(=O)[C@H]1C(=O)N(C)C[C@@H]1c1ccc(F)cc1 [Compound 1236]	–	–	–	–	–	–	–	–	–	–	–	–	30%	30%	100%	60%	90%	40%	30%	20%	pest or weed control at 125 g/ha [2, 20]: 100%; pest or weed control at 125 g/ha [3, 21]: 50%; pest or weed control at 125 g/ha [4, 22]: 30%; pest or weed control at 125 g/ha [5, 23]: 0%
Cc1ccccc1NC(=O)[C@H]1C(=O)N(C)C[C@@H]1c1ccc(C(F)(F)F)cc1 [Compound 1239]	–	–	–	–	–	–	–	–	–	–	–	–	80%	70%	80%	60%	90%	60%	70%	40%	pest or weed control at 125 g/ha [2, 20]: 90%; pest or weed control at 125 g/ha [3, 21]: 60%; pest or weed control at 125 g/ha [4, 22]: 90%; pest or weed control at 125 g/ha [5, 23]: 20%
O=C1NC[C@H](c2cccc(C(F)(F)F)c2)C1C(=O)Nc1c(F)cccc1CO (stereo partly drawn) [Compound 1240]	–	–	–	–	–	–	–	–	–	–	–	–	0%	0%	0%	0%	0%	0%	0%	0%	pest or weed control at 125 g/ha [2, 20]: 0%; pest or weed control at 125 g/ha [3, 21]: 0%; pest or weed control at 125 g/ha [4, 22]: 0%; pest or weed control at 125 g/ha [5, 23]: 0%
